In US11542246B2, “Quinoline compounds as IRAK inhibitors and uses thereof” (Merck Patent GmbH, priority 2018, dated 2023):

Columns and labels:
[1] = target: IRAK1 (Homo sapiens (Human), UniProt P51617); assay: IRAK1 Enzymatic Assay; assay type: biochemical; settings: His-TEV-IRAK1 (194-712), ATP 1 μM, 3 hours at 30° C.
Method: IRAK1 is a human purified recombinant enzyme (His-TEV-IRAK1 (194-712)). In this assay, IRAK-1 hydrolyses ATP and autophosphorylates. Measurement of IRAK-1 inhibition was performed in streptavidin coated 384 well FlashPlate (PerkinElmer #SMP410A). His-TEV-IRAK-1 (15 ng/well), ATP (1 μM, [33P]ATP 0.25 μCi/well) and compounds in DMSO (range of concentrations from 20 μM to 1 nM) or controls (2% DMSO) were incubated for 3 hours at 30° C. in assay buffer: Hepes pH7.0 50 mM, Fatty acid-free BSA 0.1%, Dithiothreitol DTT 2 mM, MgCl2 10 mM, EGTA 0.5 mM, Triton-X-100 0.01%. Kinase reaction was stopped by addition of EDTA. Supernatant was discarded, plates were washed three times with 150 mM NaCl and radioactivity was then measured in a Microbeta Trilux reader.

[2] = target: IRAK4 (Homo sapiens, UniProt Q9NWZ3); assay: IRAK4 Enzymatic Assay; assay type: biochemical; settings: His-TEV-IRAK4, ATP 2 μM, STK1-biotin peptide 300 nM, 3 hours at 30° C.
Method: IRAK4 Enzymatic Assay IRAK4 is a human purified recombinant enzyme ([…]. IRAK4 hydrolyses ATP, autophosphorylates and phosphorylates a Serine/Threonine generic peptidic substrate (STK: 61ST1BLC from CisBio International based in Bagnols/Cèze FR). Measurement of IRAK-4 inhibition was performed in streptavidin coated 384 well FlashPlate (PerkinElmer #SM[…]). His-TEV-IRAK4 (20 ng/well), ATP (2 μM, [^33P]ATP 0.25 μCi/well), STK1-biotin peptide (300 nM) and compounds in DMSO (range of concentrations from 20 μM to 1 nM) or controls (2% DMSO) were incubated for 3 hours at 30° C. in assay buffer: Hepes pH7.0 50 mM, Fatty acid-free BSA 0.1%, Dithiothreitol DTT 2 mM, MgCl2 10 mM, EGTA 0.5 mM, Tween-20 0.01%, MnCl2 5 mM. Kinase reaction was stopped by addition of EDTA.

[3] = system: TLR7 induced IL-6 secretion in human mononuclear cells (PBMC's); assay: TLR7 induced IL-6 in Human PBMC's; assay type: cell-based; settings: TLR7 specific ligand 2 uM overnight, IL-6 Alpha LISA
Method: TLR7 induced IL-6 in Human PBMC's
Human PBMC assay was used as one of the functional assays to monitor the activity of IRAK1 and IRAK4 small molecule inhibitors on TLR7 induced IL-6 secretion in human mononuclear cells (PBMC's). Human PBMCs were prepared from buffy coats (whole blood enriched with leukocytes and platelets) obtained from healthy volunteers used either fresh or frozen are plated in assay media (RPMI+2% P/S/L-glu+10% HI-FBS) and pre-treated with compounds in DMSO/media (range of concentrations from 25 uM to 0.4 nM) or controls (0.25% DMSO) for 30 minutes at 37° C. in assay media. Following pre-treatment with IRAK1 and IRAK4 inhibitors, PBMC's were stimulated with TLR7 specific ligand (2 uM) overnight (16-18 hrs) at 37° C. After incubation supernatant was transferred to 384 well PE AlphaPlate-384 (6005350) and IL-6 is quantified using Perkin Elmer IL-6 Alpha LISA kit (AL223C). Plates were read on an Envision® plate reader with Alpha Technology®.

Chain of IRAK4 (Q9NWZ3 whole entry, looked up): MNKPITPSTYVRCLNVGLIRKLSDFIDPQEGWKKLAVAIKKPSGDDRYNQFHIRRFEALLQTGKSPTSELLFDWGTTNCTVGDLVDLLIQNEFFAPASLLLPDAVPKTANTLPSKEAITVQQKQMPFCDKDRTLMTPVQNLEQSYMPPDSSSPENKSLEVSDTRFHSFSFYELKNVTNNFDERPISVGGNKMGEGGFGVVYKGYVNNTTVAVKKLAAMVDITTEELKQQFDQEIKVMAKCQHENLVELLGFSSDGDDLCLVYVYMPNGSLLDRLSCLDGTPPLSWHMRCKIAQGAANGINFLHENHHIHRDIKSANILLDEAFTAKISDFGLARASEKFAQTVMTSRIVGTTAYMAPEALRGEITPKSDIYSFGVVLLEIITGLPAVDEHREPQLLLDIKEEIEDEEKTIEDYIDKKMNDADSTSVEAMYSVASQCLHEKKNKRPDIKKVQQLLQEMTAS
Chain of IRAK1 (P51617 194-712): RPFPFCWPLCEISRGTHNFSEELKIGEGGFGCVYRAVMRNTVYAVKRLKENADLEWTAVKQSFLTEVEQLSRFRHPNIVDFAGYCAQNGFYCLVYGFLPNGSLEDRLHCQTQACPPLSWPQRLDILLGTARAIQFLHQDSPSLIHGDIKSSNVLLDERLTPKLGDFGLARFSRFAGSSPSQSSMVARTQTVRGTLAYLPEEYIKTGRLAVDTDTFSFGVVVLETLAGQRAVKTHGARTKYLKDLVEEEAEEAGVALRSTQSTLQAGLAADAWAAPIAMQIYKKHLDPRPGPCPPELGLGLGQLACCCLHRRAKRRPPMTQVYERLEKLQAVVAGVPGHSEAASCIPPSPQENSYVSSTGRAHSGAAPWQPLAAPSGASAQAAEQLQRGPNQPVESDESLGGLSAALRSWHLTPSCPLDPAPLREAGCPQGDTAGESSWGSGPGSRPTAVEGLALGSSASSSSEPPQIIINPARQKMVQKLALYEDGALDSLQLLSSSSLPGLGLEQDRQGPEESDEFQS

Row | Structure (SMILES) | IC50 [1] [nM] | IC50 [2] [nM] | IC50 [3] [nM]
1 | COc1nc2c(OC[C@@H]3CCC(=O)N3)cccc2cc1C(N)=O [Compound 3, 2-Methoxy-8-((S)-5-oxo-pyrrolidin-2-ylmethoxy)-quinoline-3-carboxylic acid amide] | 1000 to 5000 | < 100 | < 500
2 | CC[C@@H]1[C@H](F)C(=O)N[C@@H]1COc1nccc2cc(C(N)=O)c(OC)nc12 [Compound 6, 8-((2S,3S,4S)-3-Ethyl-4-fluoro-5-oxo-pyrrolidin-2-ylmethoxy)-2-methoxy-[1,7]naphthyridine-3-carboxylic acid amide] | 1000 to 5000 | < 100 | –
3 | CC[C@@H]1[C@H](F)C(=O)N[C@@H]1COc1cccc2cc(C(N)=O)c(OC)nc12 [Compound 4, 8-((2S,3S,4S)-3-Ethyl-4-fluoro-5-oxo-pyrrolidin-2-ylmethoxy)-2-methoxy-quinoline-3-carboxylic acid amide] | 100 to 1000 | < 100 | < 500
4 | COc1nc2c(OCC3CCC(=O)N3)cccc2cc1C(N)=O (stereo not shown) [Compound 1, 2-Methoxy-8-(5-oxo-pyrrolidin-2-ylmethoxy)-quinoline-3-carboxylic acid amide] | > 5000 | < 100 | < 500
5 | COc1cc2c(OCC3CCC(=O)N3)cccc2nc1C(N)=O (stereo not shown) [Compound 2, 3-Methoxy-5-(5-oxo-pyrrolidin-2-ylmethoxy)-quinoline-2-carboxylic acid amide] | > 5000 | 100 to 1000 | –
6 | COc1nc2c(OC[C@@H]3CC(F)(F)C(=O)N3)cccc2cc1C(N)=O [Compound 5, 8-((S)-4,4-Difluoro-5-oxo-pyrrolidin-2-ylmethoxy)-2-methoxy-quinoline-3-carboxylic acid amide] | 1000 to 5000 | < 100 | < 500
